Test results from patent publication US20150166505A1, “PYRIDINYL-SUBSTITUTED PYRAZOLYL CARBOXAMIDES” (GRÜNENTHAL GMBH, priority 2013, published 2015).
Read-outs that look alike come from different tables or passages of the source.

How the values were obtained:
[1] = tested on: Interleukin-2 (IL-2) production/release in Jurkat T cell line; assay: Jurkat IL-2 Production Assay; type: cell-based; conditions: Homo sapiens; Jurkat T cells, PHA stimulation 22 hours
Protocol: Jurkat IL-2 Production Assay
The effect of compounds of the invention on Interleukin-2 (IL-2) production/release was tested in the Jurkat T cell line (ECACC) clone E6-1. Jurkat T cells were cultured in DMEM/F12/Glutamax (Gibco) containing 10% FCS (Gibco), and maintained at 37° C., 5% CO2. Cell were split twice a week [5*10^6 (Mon-Thu) and 1*10^7 (Thu-Mon) cells/50 ml medium in T-175 ZK culture flasks, respectively]. Prior to experiment, cells were seeded on 96 well plates (Cellstar 96 Well; Cat No. 655180, Greiner bio-one) at a density of 5*10^5 cells/well in DMEM/F12/Glutamax (Gibco) containing 10% FCS (Gibco), and incubated for 60 min at 37° C., 5% CO2. Subsequently, compounds were added and cells were allowed to incubate for 30 min at 37° C., 5% CO2. Cells were then stimulated with 15 μg/ml Phytohemagglutinin (PHA; Sigma) for 22 hours at 37° C., 5% CO2. Before sampling of the supernatants, cells were spun down (200*g/5 min/RT). The amount of IL-2 released into the supernatant was quantified with the human IL-2 AlphaLisa kit (Perkin Elmer) according to manufacturer's instructions. Luminescence proximity measurements were carried out in the Synergy H4 reader (BioTek) employing the fluorescence setting of the reader (ex: 680/30 nm; em: 620/40 nm). Inhibition of IL-production/release in/from Jurkat T cells was quantified as follows: Zero percent inhibition (MAX) was defined as the [IL-2] determined in supernatants derived from cells to which PHA & DMSO-only had been added instead of compound. Hundred percent inhibition (MIN) was defined as the [IL-2] determined in supernatants derived from cells that had been pre-treated with 1 μM CyclosporineA (Sigma) before the addition of 15 μg/ml PHA. For routine IC50 determinations of compounds, 8 concentrations of a serial dilution (1:3.16) were tested, starting off from 10 μM.

[2] = target: T1, CRAC channel (endogenous SOC in HEK293 cells) (Homo sapiens, UniProt Q96D31); assay: HEK Calcium Influx Assay (FLIPR); type: cell-based
T1 construct: endogenous in cells; host or cells: HEK293 (ECACC)
T1 sequence (Q96D31 whole entry): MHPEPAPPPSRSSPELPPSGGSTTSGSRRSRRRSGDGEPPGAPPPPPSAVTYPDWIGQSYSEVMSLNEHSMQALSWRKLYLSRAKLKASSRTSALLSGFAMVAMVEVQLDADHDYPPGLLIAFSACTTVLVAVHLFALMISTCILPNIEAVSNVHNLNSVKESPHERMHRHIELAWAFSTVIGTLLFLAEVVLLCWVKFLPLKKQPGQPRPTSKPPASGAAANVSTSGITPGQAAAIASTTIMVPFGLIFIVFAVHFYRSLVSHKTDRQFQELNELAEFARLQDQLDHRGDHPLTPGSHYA
Protocol: The effect of compounds of the invention on intracellular [Ca^2+] was tested in the HEK293 cell line (ECACC). HEK293 cells were cultured in DMEM/F12/Glutamax (Gibco) containing 10% FCS (Gibco), and maintained at 37° C., 5% CO2. Cell were split twice a week [3*10^6 (Mon-Thu) and 1*10^6 (Thu-Mon) cells/50 ml medium in T-175 ZK culture flasks, respectively]. Twenty four hours pre-experiment, cells were seeded on 96 well plates (Poly-D-Lysine 96well Black/Clear Plate, BD Biocoat REF 356640) at a density of 40,000 cells/well in DMEM/F12 (Gibco) containing 10% FCS (Gibco), and maintained at 37° C., 5% CO2. Prior to store-depletion, cell culture medium was removed and cells were loaded with the a Calcium-sensitive fluorescent dye comprised within the Calcium-4-assay kit (Molecular Devices) in nominally Ca^2+-free HBS buffer (140 mM NaCl, 4 mM KCl, 0.2 mM MgCl2, 11 mM D-glucose, and 10 mM HEPES, pH 7.4) according to manufacturer's instruction for 60 min at 37° C., 5% CO2. Passive depletion of intracellular Ca^2+-stores was then triggered by employing the SERCA inhibitor thapsigargin (2 μM final) for 10 min in the dark (RT). To prevent immediate Ca^2+-entry via the activated Store-operated channels (SOCs), cells were maintained in Ca^2+-free HBS buffer comprising 100 μM EGTA during store-depletion. Intracellular changes in [Ca^2+] were subsequently monitored with the FLIPR device (Molecular Devices). In brief, baseline imaging post-store depletion was allowed for 1 min before adjusting the extracellular buffer to 3 mM CaCl2. Increases in intracellular [Ca^2+] due to pre-activated SOC channels were monitored for 15 min until intracellular Ca^2+ levels had declined into a steady-state. Finally, compounds were administered and Ca^2+ signals were recorded for additional 10 min. Inhibition of endogenous SOC in HEK293 cells was quantified employing the average Ca^2+ signal measured from 9.5-10 min post-administration. Zero percent inhibition (MAX) was defined as the Ca^2+ signal recorded from wells to which DMSO-only had been added instead of compound. Hundred percent inhibition (MIN) was defined as the signal obtained from wells in which cells haven't been treated with TG prior to Ca^2+ addition and to which DMSO-only had been added instead of compound. For routine IC50 determinations of compounds, 8 concentrations of a serial dilution (1:3.16) were tested, starting off from 10 μM. Reliable IC50's could consequently be determined only, if they were at least sub 2.5-3 μM.

[3] = thapsigargin store depletion, read-out: % inhib. [@ 10 μM] FLIPR
[4] = numeric values of Table 2, read-out: inhib. [@ 10 μM] FLIPR

Row | Structure (SMILES) | IC50 [1] [µM] | inhibition at 10 µM [2, 3] [%] | inhibition at 10 µM [2, 4] [%]
1 | CCOc1ncc(-c2cc(C(=O)Nc3c(F)cccc3F)nn2C)c(C)c1F [Example 35, N-(2,6-Difluoro-phenyl)-5-(6-ethoxy-5-fluoro-4-methyl-pyridin-3-yl)-1-methyl-1H-pyrazole-3-carboxylic acid amide] | 1 to 5 | < 50 | 
2 | CCOc1ncc(-c2cc(C(=O)Nc3c(F)cncc3F)nn2C)c(C)c1F [Example 36, N-(3,5-Difluoro-pyridin-4-yl)-5-(6-ethoxy-5-fluoro-4-methyl-pyridin-3-yl)-1-methyl-1H-pyrazole-3-carboxylic acid amide] | 1 to 5 | 50 to 70 | 
3 | Cc1cc(N(C)C)ncc1-c1cc(C(=O)Nc2c(F)cccc2F)nn1C [Example 37, N-(2,6-Difluoro-phenyl)-5-(6-dimethylamino-4-methyl-pyridin-3-yl)-1-methyl-1H-pyrazole-3-carboxylic acid amide] | 1 to 5 | > 70 | 98
4 | COc1cc(OC(F)F)ncc1-c1cc(C(=O)Nc2c(F)cncc2F)nn1C [Example 44, 5-[6-(Difluoro-methoxy)-4-methoxy-pyridin-3-yl]-N-(3,5-difluoro-pyridin-4-yl)-1-methyl-1H-pyrazole-3-carboxylic acid amide] | < 0.5 | > 70 | 
5 | Cn1nc(C(=O)Nc2c(F)cccc2F)cc1-c1cnc(C2CC2)cc1C(F)(F)F [Example 48, 5-[6-Cyclopropyl-4-(trifluoromethyl)-pyridin-3-yl]-N-(2,6-difluoro-phenyl)-1-methyl-1H-pyrazole-3-carboxylic acid amide] | 0.5 to 1 | > 70 | 
6 | COc1cc(OC)c(-c2c(Cl)c(C(=O)Nc3c(F)cccc3F)nn2C)cn1 [Example 57, 4-Chloro-N-(2,6-difluoro-phenyl)-5-(4,6-dimethoxy-pyridin-3-yl)-1-methyl-1H-pyrazole-3-carboxylic acid amide] | 1 to 5 | > 70 | 
7 | Cc1cc(C(F)(F)F)ncc1-c1cc(C(=O)Nc2c(F)cccc2F)nn1C [Example 60, N-(2,6-Difluoro-phenyl)-1-methyl-5-[4-methyl-6-(trifluoromethyl)-pyridin-3-yl]-1H-pyrazole-3-carboxylic acid amide] | 0.5 to 1 | > 70 | 100
8 | Cn1nc(C(=O)Nc2c(F)cncc2F)cc1-c1cnc(C2CC2)cc1C(F)(F)F [Example 63, 5-[6-Cyclopropyl-4-(trifluoromethyl)-pyridin-3-yl]-N-(3,5-difluoro-pyridin-4-yl)-1-methyl-1H-pyrazole-3-carboxylic acid amide] | 1 to 5 | > 70 | 
9 | COc1cc(OC)c(-c2c(C)c(C(=O)Nc3c(F)cccc3F)nn2C)cn1 [Example 64, N-(2,6-Difluoro-phenyl)-5-(4,6-dimethoxy-pyridin-3-yl)-1,4-dimethyl-1H-pyrazole-3-carboxylic acid amide] | 1 to 5 | > 70 | 
10 | COc1cc(OC)c(-c2c(C)c(C(=O)Nc3c(F)cncc3F)nn2C)cn1 [Example 65, N-(3,5-Difluoro-pyridin-4-yl)-5-(4,6-dimethoxy-pyridin-3-yl)-1,4-dimethyl-1H-pyrazole-3-carboxylic acid amide] | 1 to 5 | > 70 | 

The next lines start with the values.

Row | IC50 [1] [µM] | inhibition at 10 µM [2, 3] [%] | inhibition at 10 µM [2, 4] [%] | Structure (SMILES)
11 | < 0.5 | > 70 |  | COc1cc(OC(F)F)ncc1-c1cc(C(=O)Nc2c(F)cccc2F)nn1C [Example 43, 5-[6-(Difluoro-methoxy)-4-methoxy-pyridin-3-yl]-N-(2,6-difluoro-phenyl)-1-methyl-1H-pyrazole-3-carboxylic acid amide]
12 | < 0.5 | > 70 |  | COc1cc(OCC2CC2)ncc1-c1cc(C(=O)Nc2c(F)cccc2F)nn1C [Example 45, 5-[6-(Cyclopropyl-methoxy)-4-methoxy-pyridin-3-yl]-N-(2,6-difluoro-phenyl)-1-methyl-1H-pyrazole-3-carboxylic acid amide]
13 | < 0.5 | > 70 |  | COc1cc(OCC(F)(F)F)ncc1-c1cc(C(=O)Nc2c(F)cccc2F)nn1C [Example 46, N-(2,6-Difluoro-phenyl)-5-[4-methoxy-6-(2,2,2-trifluoro-ethoxy)-pyridin-3-yl]-1-methyl-1H-pyrazole-3-carboxylic acid amide]
14 | < 0.5 | > 70 |  | CCOc1cc(OC(F)F)c(-c2cc(C(=O)Nc3c(F)cccc3F)nn2C)cn1 [Example 47, 5-[4-(Difluoro-methoxy)-6-ethoxy-pyridin-3-yl]-N-(2,6-difluoro-phenyl)-1-methyl-1H-pyrazole-3-carboxylic acid amide]
15 | 1 to 5 | 50 to 70 |  | CCOc1cc(OC2COC2)c(-c2cc(C(=O)Nc3c(F)cccc3F)nn2C)cn1 [Example 49, N-(2,6-Difluoro-phenyl)-5-[6-ethoxy-4-(oxetan-3-yloxy)-pyridin-3-yl]-1-methyl-1H-pyrazole-3-carboxylic acid amide]
16 | 1 to 5 | 50 to 70 |  | COc1cc(OCC2COC2)ncc1-c1cc(C(=O)Nc2c(F)cccc2F)nn1C [Example 51, N-(2,6-Difluoro-phenyl)-5-[4-methoxy-6-(oxetan-3-yl-methoxy)-pyridin-3-yl]-1-methyl-1H-pyrazole-3-carboxylic acid amide]
17 | < 0.5 | > 70 |  | COc1cc(C2CC2)ncc1-c1cc(C(=O)Nc2c(F)cccc2F)nn1C [Example 54, 5-(6-Cyclopropyl-4-methoxy-pyridin-3-yl)-N-(2,6-difluoro-phenyl)-1-methyl-1H-pyrazole-3-carboxylic acid amide]
18 | < 0.5 | > 70 |  | COc1cc(OCC2CCC2)ncc1-c1cc(C(=O)Nc2c(F)cccc2F)nn1C [Example 55, 5-[6-(Cyclobutyl-methoxy)-4-methoxy-pyridin-3-yl]-N-(2,6-difluoro-phenyl)-1-methyl-1H-pyrazole-3-carboxylic acid amide]
19 | 0.5 to 1 | > 70 |  | COc1cc(Cl)c(-c2cc(C(=O)Nc3c(F)cccc3F)nn2C)cn1 [Example 56, 5-(4-Chloro-6-methoxy-pyridin-3-yl)-N-(2,6-difluoro-phenyl)-1-methyl-1H-pyrazole-3-carboxylic acid amide]
20 | < 0.5 | > 70 |  | COc1cc(OC2CC2)ncc1-c1cc(C(=O)Nc2c(F)cccc2F)nn1C [Example 61, 5-(6-Cyclopropyloxy-4-methoxy-pyridin-3-yl)-N-(2,6-difluoro-phenyl)-1-methyl-1H-pyrazole-3-carboxylic acid amide]
21 | 1 to 5 | 50 to 70 |  | COc1cc(OC2COC2)ncc1-c1cc(C(=O)Nc2c(F)cccc2F)nn1C [Example 62, N-(2,6-Difluoro-phenyl)-5-[4-methoxy-6-(oxetan-3-yloxy)-pyridin-3-yl]-1-methyl-1H-pyrazole-3-carboxylic acid amide]
